For 29 compounds, EC50 and CC50 results are on record in patent US10160771B2, “Hepatitis C virus inhibitors and uses thereof in preparation of drugs” (priority 2014, dated 2018).

Data set [1] concerns HCV genotype 1a (HCV-1a) replicon cells. Nature of the data set: HCV genotype 1a replicon luciferase assay (EC50). It is filed as cell-based, hepatitis C virus genotype 1a (H77 clone). The conditions noted are these: 3 days, luciferase (Bright-Glo). The gist of the method:
(§1)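 Replicon cells, 8000/well, 3 d, 37 °C; 6-pt 5-fold dilution from 100, 10 or 1 nM, 0.5% DMSO, duplicates; Bright-Glo luminescence → EC50 (nonlinear fit). 1a = H77 K1691R/K2040R/S2204I; 1b = Con1 E1202G/T1280I/K1846T.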
A general note: A replicon is a self-replicating genome or part of one, used to study replication in cells.

Data set [2] can be described thus: Cell Titer-fluor cell activity assay in HCV-1b replicon cells (CC50). It is filed as cell-based. The gist of the method:
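CC50 derived by nonlinear fitting of inhibition % from Cell Titer-fluor signal (405/515 nm, 30 min). Cells: genotype 1b Con1 replicon carrying E1202G, T1280I, K1846T, seeded 8000/well with compound for 3 days, 37 °C, 0.5% DMSO; 6 points, 5-fold dilution, top 100, 10 or 1 nM, duplicates.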

The test system of data set [3] is HCV genotype 1b (HCV-1b) replicon cells. As to the kind of experiment: HCV genotype 1b replicon luciferase assay (EC50). The data set is classed as cell-based, hepatitis C virus genotype 1b (Con1 clone). The conditions noted are these: Hepatitis C virus, 72 h, 3 days, luciferase (Bright-Glo). The gist of the method: as §1

The structures appear in SMILES notation.

Take `COC(=O)N[C@H](C(=O)N1CCC[C@H]1c1ncc(-c2ccc(-c3ccc(-c4cnc(C5C6CCC(C6)[C@H]5C(=O)NNc5nccnc5Cl)[nH]4)cc3)cc2)[nH]1)[C@@H](C)OC` (stereo partly drawn) [AA_250_B]: the EC50 (as a rule, the concentration giving half of the maximal effect) in data set [1] (Hepatitis C virus, 72 h) was 10 to 100 nM; in data set [3] it was 1 to 10 nM. Further, the CC50 (usually the concentration giving 50% cytotoxicity) at 3 days in data set [2] was > 1 nM.
Turning to `COC(=O)N[C@H](C(=O)N1CCC[C@H]1c1ncc(-c2ccc(-c3ccc(-c4[nH]c([C@@H]5CCCN5C(=O)[C@@H](NC(=O)OC)[C@@H](C)OC)c5c4CCCC5)cc3)cc2)[nH]1)C(C)C` [AG_078_A], the EC50 lay in the range of 10 to 100 nM in data set [1] (Hepatitis C virus, 72 h) and 0.001 to 0.1 nM in data set [3]. The CC50 at 3 days in data set [2] was > 5 nM.
As for `COC(=O)N[C@H](C(=O)N1CCC[C@H]1c1ncc(-c2ccc3c(c2)[C@@](C)(O)c2cc(-c4cnc(C5C6CCC(C6)[C@H]5C(=O)NCc5cccnc5)[nH]4)ccc2-3)[nH]1)C(C)C` (stereo partly drawn) [AA_241_A], the EC50 in data set [1] (Hepatitis C virus, 72 h) lay within 10 to 100 nM; in data set [3], 0.101 to 1 nM. Besides, the half-maximal cytotoxic concentration (CC50) at 3 days in data set [2] is > 1 nM.
On the same counts, the results for `COC(=O)N[C@H](C(=O)N1CCC[C@H]1c1ncc(-c2ccc(-c3ccc(-c4cnc(C5C6CCC(C6)[C@H]5C(=O)NCc5cccnc5F)[nH]4)cc3)cc2)[nH]1)[C@@H](C)OC` (stereo partly drawn) [AA_252_B] are 1 to 10 nM, 0.001 to 0.1 nM and > 1 nM.
The matching figures for `COC(=O)N[C@H](C(=O)N1CCC[C@H]1c1ncc(-c2ccc(-c3ccc(-c4cnc(C5C6CCC(C6)[C@H]5C(=O)NCc5ccc(C(C)C)nc5)[nH]4)cc3)cc2)[nH]1)[C@@H](C)OC` (stereo partly drawn) [AA_265_B]: 10 to 100 nM, 0.101 to 1 nM and > 1 nM.
On the same counts, the results for `COC(=O)N[C@H](C(=O)N1CCC[C@H]1c1ncc(-c2ccc(-c3ccc(-c4cnc([C@@H]5[C@H]6CC[C@H](C6)[C@H]5C(=O)N[C@@H](CO)c5cccnc5)[nH]4)cc3)cc2)[nH]1)C(C)C` [AA_243_ENDOA2_A] are 1 to 10 nM, 0.001 to 0.1 nM and > 1 nM.
In the case of `COC(=O)N[C@H](C(=O)N1CCC[C@H]1c1ncc(-c2ccc(-c3ccc(-c4cnc(C5C6CCC(C6)[C@@H]5C(=O)NCc5cccnc5OC)[nH]4)cc3)cc2)[nH]1)[C@@H](C)OC` (stereo partly drawn) [AA_257_A], the concentration giving a half-maximal response (EC50) was 1 to 10 nM in data set [1] (Hepatitis C virus, 72 h) and 0.101 to 1 nM in data set [3]. Also, the CC50 at 3 days in data set [2] was > 1 nM.
On the same counts, the results for `COC(=O)N[C@H](C(=O)N1CCC[C@H]1c1ncc(-c2ccc(-c3ccc(-c4cnc(C5C6CCC(C6)[C@H]5C(=O)NCc5cccnc5C(C)C)[nH]4)cc3)cc2)[nH]1)[C@@H](C)OC` (stereo partly drawn) [AA_245_A] are 10 to 100 nM, 0.001 to 0.1 nM and > 1 nM.
The matching figures for `COC(=O)N[C@H](C(=O)N1CCC[C@H]1c1ncc(-c2ccc(-c3ccc(-c4[nH]c([C@H]5CCCN5C(=O)[C@@H](NC(=O)OC)C(C)OC)c5c4COC5)cc3)cc2)[nH]1)C(C)C` (stereo partly drawn) [AG_079_B]: 1 to 10 nM, 0.101 to 1 nM and > 5 nM.
On the same counts, the results for `COC(=O)N[C@H](C(=O)N1C[C@@H](OC)C[C@H]1c1ncc(-c2ccc(-c3ccc(-c4cnc([C@@H]5C6CCC(C6)[C@H]5C(=O)NCc5cccnc5)[nH]4)cc3)cc2)[nH]1)C(C)C` (stereo partly drawn) [AA_230_A] are 0.101 to 1 nM, 0.001 to 0.1 nM and > 1 nM.
As to `COC(=O)N[C@H](C(=O)N1CCC[C@H]1c1ncc(-c2ccc(-c3ccc(-c4cnc([C@H]5C6CCC(C6)[C@@H]5C(=O)NCc5ccc(C(F)(F)F)nc5)[nH]4)cc3)cc2)[nH]1)C(C)C` (stereo partly drawn) [AA_232_A], the EC50 in data set [1] (Hepatitis C virus, 72 h) was in the range of 1 to 10 nM; in data set [3], 0.001 to 0.1 nM. Also, in data set [2], the CC50 at 3 days was > 1 nM.
As for `COC(=O)N[C@H](C(=O)N1CCC[C@H]1c1ncc(-c2ccc(-c3ccc(-c4cnc([C@H]5C6CCC(C6)[C@@H]5C(=O)NCc5cccnc5O)[nH]4)cc3)cc2)[nH]1)C(C)C` (stereo partly drawn) [AA_228], the EC50 in data set [1] (Hepatitis C virus, 72 h) was 1 to 10 nM; in data set [3], 0.001 to 0.1 nM. Moreover, the CC50 at 3 days in data set [2] was > 1 nM.
As to `COC[C@H](NC(=O)OC)C(=O)N1CCC[C@H]1c1ccc(-c2ccc(-c3ccc(-c4cnc([C@@H]5CCCN5C(=O)[C@@H](NC(=O)OC)[C@@H](C)O)[nH]4)cc3)cc2)[nH]1` [AG_108], the concentration for a half-maximal effect (EC50) in data set [1] (Hepatitis C virus, 72 h) fell in the range of 0.101 to 1 nM; in data set [3], 0.001 to 0.1 nM. For the same compound, in data set [2], the CC50 at 3 days was > 1 nM.
The matching figures for `COC(=O)N[C@H](C(=O)N1CCC[C@H]1c1ncc(-c2ccc(-c3ccc(-c4cnc([C@@H]5[C@H]6CC[C@H](C6)[C@H]5C(=O)NC5(c6ccccc6)CC5)[nH]4)cc3)cc2)[nH]1)C(C)C` [AA_273_ENDOA2]: 1 to 10 nM, 0.001 to 0.1 nM and > 1 nM.
Regarding `COC(=O)N[C@H](C(=O)N1CCC[C@H]1c1ncc(-c2ccc(-c3ccc(-c4cnc([C@@H]5[C@H]6CC[C@H](C6)[C@H]5C(=O)N[C@H](CO)c5cccnc5)[nH]4)cc3)cc2)[nH]1)C(C)C` [AA_243_ENDOA2_B], the EC50 lay within 0.101 to 1 nM in data set [1] (Hepatitis C virus, 72 h) and 0.001 to 0.1 nM in data set [3]. Also, the CC50 at 3 days in data set [2] was > 1 nM.
On the same counts, the results for `COC(=O)N[C@H](C(=O)N1CCC[C@H]1c1cnc(-c2ccc(-c3ccc(-c4ncc(C5C6CCC(C6)[C@@H]5C(=O)N(NC(=O)OC)C(C)C)[nH]4)cc3)cc2OC)[nH]1)C(C)C` (stereo partly drawn) [AA_166_B] are 10 to 100 nM, 0.101 to 1 nM and > 5 nM.
As for `COC(=O)N[C@H](C(=O)N1CCC[C@H]1c1ncc(-c2ccc(-c3ccc(-c4cnc([C@@H]5C6CCC(C6)[C@H]5C(=O)NCc5cccnc5C(C)C)[nH]4)cc3)cc2)[nH]1)C(C)C` (stereo partly drawn) [AA_215_B], the EC50 was in the range of 10 to 100 nM in data set [1] (Hepatitis C virus, 72 h) and 0.001 to 0.1 nM in data set [3]. Also, the cytotoxic concentration (CC50) at 3 days in data set [2] was > 1 nM.
For the compound `COC(=O)NC(C(=O)N1CCCC1c1ccc(-c2ccc3c(c2)C(C)(C)c2cc(-c4cnc([C@@H]5CCCN5C(=O)[C@@H](NC(=O)OC)C(C)C)[nH]4)ccc2-3)[nH]1)[C@@H](C)OC` (stereo partly drawn) [AG_085], the EC50 lay within 10 to 100 nM in data set [1] (Hepatitis C virus, 72 h) and 0.001 to 0.1 nM in data set [3]. In addition, in data set [2], the CC50 at 3 days is > 1 nM.
Turning to `COC(=O)N[C@H](C(=O)N1CCC[C@H]1c1ncc(-c2ccc(-c3ccc(-c4cnc(C5C6CCC(C6)[C@H]5C(=O)N[C@H](c5cccnc5)C(C)C)[nH]4)cc3)cc2)[nH]1)[C@@H](C)OC` (stereo partly drawn) [AA_267_B], the values for the 50% effective concentration (EC50) in data set [1] and in data set [3] were 1 to 10 nM and 0.101 to 1 nM, respectively. For the same compound, in data set [2], the 50% cytotoxic concentration (CC50) at 3 days was > 1 nM.
With `COC(=O)N[C@H](C(=O)N1CCC[C@H]1c1ncc(-c2ccc(-c3ccc(-c4cnc([C@H]5C6CCC(C6)[C@@H]5C(=O)NCc5ccccc5N)[nH]4)cc3)cc2)[nH]1)C(C)C` (stereo partly drawn) [AA_194], the EC50 was 10 to 100 nM in data set [1] (Hepatitis C virus, 72 h) and 0.001 to 0.1 nM in data set [3]. In data set [2], the CC50 at 3 days was > 1 nM.
The matching figures for `COC(=O)N[C@H](C(=O)N1CCC[C@H]1c1ncc(-c2ccc(-c3ccc(-c4cnc(C5C6CCC(C6)[C@H]5C(=O)NCCO)[nH]4)cc3)cc2)[nH]1)[C@@H](C)OC` (stereo partly drawn) [AA_220_A]: 10 to 100 nM, 0.101 to 1 nM and > 1 nM.
`COC(=O)N[C@H](C(=O)N1CCC[C@H]1c1ncc(-c2ccc(-c3ccc(-c4cnc([C@H]5C6CCC(C6)[C@@H]5C(=O)NCc5cncc(C(C)C)c5)[nH]4)cc3)cc2)[nH]1)C(C)C` (stereo partly drawn) [AA_235_A]: the EC50 in data set [1] (Hepatitis C virus, 72 h) lay within 10 to 100 nM; in data set [3], 0.001 to 0.1 nM. In addition, the CC50 at 3 days in data set [2] is > 1 nM.
On the same counts, the results for `COC(=O)N[C@H](C(=O)N1CCC[C@H]1c1[nH]c(-c2ccc(-c3ccc(-c4cnc([C@@H]5CCCN5C(=O)[C@@H](NC(=O)OC)[C@@H](C)OC)[nH]4)cc3)cc2)c2c1CCCC2)C(C)C` [AG_067] are 10 to 100 nM, 0.001 to 0.1 nM and > 1 nM.
The matching figures for `COC(=O)N[C@H](C(=O)N1CCC[C@H]1c1ncc(-c2ccc(-c3ccc(-c4cnc(C5C6CCC(C6)[C@@H]5C(=O)NCc5cccnc5)[nH]4)cc3)cc2)[nH]1)C(C)C` (stereo partly drawn) [AA_162_B]: 1 to 10 nM, 0.001 to 0.1 nM and > 1 nM.
`COC(=O)N[C@H](C(=O)N1C[C@@H](OC)C[C@H]1c1ncc(-c2ccc(-c3ccc(-c4cnc([C@@H]5C6CCC(C6)[C@H]5C(=O)NCc5cccnc5)[nH]4)cc3)cc2)[nH]1)[C@@H](C)OC` (stereo partly drawn) [AA_231_A]: the EC50 was 0.101 to 1 nM in data set [1] (Hepatitis C virus, 72 h) and 0.001 to 0.1 nM in data set [3]. The CC50 at 3 days in data set [2] was > 1 nM.
The matching figures for `COC(=O)N[C@H](C(=O)N1CC2(CC2)C[C@H]1c1ncc(-c2ccc(-c3ccc(-c4[nH]c([C@@H]5CCCN5C(=O)[C@@H](NC(=O)OC)[C@@H](C)OC)c5c4COC5)cc3)cc2)[nH]1)[C@@H](C)OC` [AG_116]: 0.001 to 0.1 nM, 0.001 to 0.1 nM and > 1 nM.
As for `COC(=O)N[C@H](C(=O)N1CCC[C@H]1c1ncc(-c2ccc(-c3ccc(-c4cnc([C@@H]5C6CCC(C6)[C@H]5C(=O)NCc5ccc(F)nc5)[nH]4)cc3)cc2)[nH]1)C(C)C` (stereo partly drawn) [AA_214_B], the EC50 lay in the range of 10 to 100 nM in data set [1] (Hepatitis C virus, 72 h) and 0.001 to 0.1 nM in data set [3]. In data set [2], the cytotoxic concentration (CC50) at 3 days is > 1 nM.
The matching figures for `COC(=O)N[C@H](C(=O)N1CCC[C@H]1c1ncc(-c2ccc(-c3ccc(-c4cnc(C5C6CCC(C6)[C@H]5C(=O)NCc5cccnc5SC)[nH]4)cc3)cc2)[nH]1)[C@@H](C)OC` (stereo partly drawn) [AA_260_B]: 10 to 100 nM, 0.001 to 0.1 nM and > 1 nM.
On the same counts, the results for `COC(=O)N[C@H](C(=O)N1CCC[C@H]1c1ncc(-c2ccc(-c3ccc(-c4cnc(C5C6CCC(C6)[C@@H]5C(=O)NNc5nccnc5Cl)[nH]4)cc3)cc2)[nH]1)[C@@H](C)OC` (stereo partly drawn) [AA_250_A] are 10 to 100 nM, 0.101 to 1 nM and > 1 nM.
